Assay results from patent publication US5290817A, “Substituted 1-benzylindanes and their use as inhibitors of phospholipase A2” (The Du Pont Merck Pharmaceutical Co., priority 1992, dated 1994).

What was measured:
[1] = tested on: porcine pancreatic phospolipase A2; conditions: Ripka et al., Journal of Cellular Biochemistry, 40, 279-286 (1989); cited from earlier work
[2] = target: PLA2 from Crotalus adamanteus (Crotalus adamanteus, UniProt P00623); assay: biochemical; parameters: species or system Crotalus adamanteus (snake venom)
PLA2 from Crotalus adamanteus, sequence (P00623 17-138 limits assumed): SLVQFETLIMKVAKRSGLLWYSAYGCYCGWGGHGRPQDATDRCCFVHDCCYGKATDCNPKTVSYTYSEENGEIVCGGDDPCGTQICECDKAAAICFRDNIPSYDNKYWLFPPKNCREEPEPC

[3] = Carrageenan Paw Edema Assay; format: in vivo, rat (male Sprague-Dawley); conditions: 50 mg/kg, intraperitoneal, paw volume at three hours; n = 3
Description: The test procedure is as follows: male Caesarian-derived Sprague-Dawley rates from Charles River Laboratories are maintained on rat chow and water ad libidum and on a 12 hour light/12 hour dark cycle until they weight 160-210 grams.
One drop of Tween 80 per 10 ml of methylcellulose and 4 mm glass beads are added to each suspension. Each compound is bead-milled for one hour prior to use.
Dosing is intraperitioneal.
After dosing, all animals are given tap water so that the total volumes of fluid administered to each rat orally is 5.0 ml. This achieves uniform hydration of the rats and thus minimizes variability of the edematous response in the paw.
Sigma Type IV lambda carrageenan (Sigma Chemical Company, St. Louis, Mo., #C3889) is suspended in 0.9% sterile saline usually as a 1% solution (100 mg/10 ml). This preparation is bead-milled one hour prior to use. […]
Immediately following injection initial paw volume readings are taken, and then again three hours later using a Ugo Basile volume plethysmometer. The differences between the initial reading and the three hour reading is then calculated. Means; S.E.M. of these difference are determined for each group. The percent decrease from the control volumes are calculated using the following formula: [formula] Data are evaluated using the Student's t-test and p 0.05 is considered significant.

| SMILES | inhibitory activity against porcine pancreatic phospolipase A2 [1] | IC50 [2] [µM] | Carr. Paw Edemia Inhib. % [3] [%] |
| --- | --- | --- | --- |
| Oc1cccc(CC2CCc3ccccc32)c1 (stereo not drawn) | claimed to possess inhibitory activity | – | – |
| O=CCc1cccc(CC2CCc3ccccc32)c1 (stereo not drawn) [Ex. 12, 3-(2',3'-Dihydroinden-1'-ylmethyl)-phenylacetaldehyde] | – | 2.4 | 51 |
